Laboratory results from PMC9412414, “A Study on Repositioning Nalidixic Acid via Lanthanide Complexation: Synthesis, Characterization, Cytotoxicity and DNA/Protein Binding Studies” (Pharmaceuticals, 2022).

Key:
[1] = molecular target: T1, human serum albumin (HSA) (Homo sapiens, UniProt P02768); experiment: HSA fluorescence quenching binding study; conditions: for Ka (association binding constant), HSA / n1 (Number of Binding Sites), HSA / n2 (Hill Coefficient), HSA / Kd / fa (fraction of fluorophore accessible to the quencher), HSA / Ksv* (Stern–Volmer quenching constant), HSA: HSA 2.5 µM; for Ka (association binding constant), HSA / n1 (Number of Binding Sites), HSA / n2 (Hill Coefficient), HSA / Kd / fa (fraction of fluorophore accessible to the quencher), HSA / Kq (bimolecular quenching constant), HSA: 298 K; for Kd: read-out: Kd (dissociation constant), HSA; for fa (fraction of fluorophore accessible to the quencher), HSA / Ksv* (Stern–Volmer quenching constant), HSA: compound 0–8 µM; for Ksv* (Stern–Volmer quenching constant), HSA: Tris-HCl pH 7.4, 298 K; for Kq (bimolecular quenching constant), HSA: from Ksv* with τ0 = 10^−8 s
T1 construct: purchased Sigma-Aldrich Chemical Co. (Schnelldorf, Germany)
Method: (§1) Using a Jasco FP 6500 spectrofluorometer (Jasco, Tokyo, Japan) and quartz cells with a 1 cm path length, the fluorescence spectra of HSA and apo-Tf were recorded in the presence and absence of the examined substances. The 2.5 mL samples containing 2.5 µM HSA or 1 µM apo-Tf were titrated by adding 5 µL of the tested substance at a time, a volume that corresponded to a 1 µM increase in concentration. The concentration range used for these experiments varied from 0 to 8 µM. The relevant spectra were collected in the emission domains of 300–500 nm (HSA) and 305–500 nm (apo-Tf) after 3 min of continuous stirring at room temperature, using excitation wavelengths of 280 nm (HSA) and 295 nm (apo-Tf).
(§2) Experiments were conducted in a pH = 7.4 Tris-HCl buffer (5 mM Tris-HCl/50 mM NaCl for HSA and 5 mM Tris-HCl/50 mM NaCl/25 mM NaHCO3 for apo-Tf).
(§3) The following modified Stern–Volmer equation has been used to calculate the Stern–Volmer constant, which will be denoted as KSV* in order to differentiate it from the Stern–Volmer constant calculated for the DNA binding experiments:(5) F0/F0−F=1/faKsv*[Q]+1/fa where F0 and F are the fluorescence intensities in the absence and presence of the tested compounds, fa is the fraction of fluorophore accessible to the quencher (the tested compounds), [Q] is the quencher concentration, and KSV* (M^−1) is the Stern–Volmer constant; the plot of F0/(F0 − F) against 1/[Q] yields KSV as the slope and fa as the y intercept.
(§4) Subsequently, the bimolecular quenching rate constant was obtained by using Equation (6):(6) Ksv^*=Kqτ0
(§5) Kq (M^−1·s^−1) is the bimolecular quenching rate constant and τ0 is the fluorophore’s lifespan in the absence of the investigated chemicals (10^−8 s). The value of Kq can be used to assess whether the quenching phenomena have an underlying static or dynamic mechanism.
(§6) Using the following equation, the affinity constant (Ka) and the number of binding sites (n) have been calculated: (7) lgF0−F/F=lgKa+nlg[Q]
(§7) The binding affinity, Kd, can be calculated using the quadratic function below:(8) F0−F/F0−Fb=[P]t+[Q]+Kd−([P]t+[Q]+Kd)^2−4[P]t[Q]/2[P]t where F and F0 are the fluorescence intensities of the protein in the presence and absence of the quencher, respectively, Fb is the fluorescence of a fully bound protein–quencher, [P]t is the total concentration of the protein, and [Q] is the concentration of the added quencher. Each binding isotherm was plotted against the total quencher concentration in solution as a function of bound to free protein (F/F0).
(§8) The isotherms were then fitted using the nonlinear regression function below:(9) F/F0= F1+(F2−F1)Kdn/Kdn+[Q]^n where n represents the Hill coefficient, F1 and F2 are the horizontal and vertical asymptotes, respectively. The Kd in Equation (9) is derived from the quadratic binding function (Equation (8)).
(§9) Data were collected in triplicate, averaged, and expressed as mean value ± standard deviation (SD). All graph fitting models were defined and built using OriginPro® 2018.

[2] = test system: HUVEC (human umbilical vein endothelial cells); experiment: MTS cytotoxicity assay, HUVEC normal cell line; type: cell-based; conditions: 24 h of incubation
Method: (§10) LoVo, MDA-MB-231 and HUVEC human cell lines were purchased from American Type Culture Collection (ATCC). Cells were routinely maintained in culture either in culture flasks or seeded in plates, using Dulbecco’s modified Eagle medium/nutrient mixture F-12 (DMEM:F12) medium supplemented with […], 10% fetal calf serum (Sigma Aldrich, St. Louis, MO, USA), 100 units/mL penicillin, 100 μg/mL streptomycin and incubated at 37 °C in 5% CO2 humidified atmosphere.
(§11) Cytotoxicity studies were performed in 96-well microtiter plates with flat bottoms (Falcon, Teterboro, NJ, USA) using the CellTiter 96 Aqueous One Solution Cell Proliferation Assay (Promega, Madison, WI, USA), an MTS-based colorimetric assay. Metabolically active cells have the ability to reduce MTS [3-(4,5-dimethylthiazol-2-yl)-5-(3-carboxymethoxyphenyl)-2-(4-sulfophenyl)-2H-tetrazolium, inner salt], a yellow tetrazolium salt, to a colored formazan that is soluble in the culture medium. Briefly, 15 × 10^3 cells per well were cultured in 100 µL culture medium. After 24 h, adherent cells were treated with different concentrations of the studied compounds, as well as adriamycin (Adr) and cisplatin (Cis-Pt), used as positive controls for 24 h and 48 h, respectively. Each well was then filled with 20 µL of reagent containing MTS and PES (phenazine ethosulfate, a cationic dye with excellent chemical stability that binds to MTS and produces a stable solution). The resulting formazan was determined using a Tecan GENios Spectrophotometer (Tecan US, Durham, NC, USA) by measuring the absorbance at λ = 492 nm after incubation for 4 h at 37 °C with moderate agitation every 15 min. The cytotoxicity tests were performed in triplicate, with results reported as mean values with standard deviations (SD). The cytotoxicity of DMSO was also investigated under the same conditions, and no harmful effect was found at doses less than 1%.
(§12) Data were expressed as cell viability by comparing with untreated cells considered 100% viable, using the following formula:(1) Cell viability (%)=absorbance of treated cells−absorbance of culture medium/absorbance of untreated cells−absorbance of culture medium

EB–DNA system (CT-DNA) = experiment: Competitive binding assay with ethidium bromide (EB) through fluorescence spectroscopy; set-up: species or system calf; conditions: EB 2 µM, CT-DNA 10 µM, compound 0–40 µM
Method: The fluorescence spectra were recorded using 1.6 mL samples containing 10 µM CT-DNA, 2 µM EB, and increasing amounts (0–40 µM with an increment of 5 µM) of tested compounds; the samples were prepared by keeping the components in contact for 10 min at room temperature, under continuous stirring and in the dark. The excitation wavelength was 500 nm, and the spectra were recorded between the wavelengths of 520 and 800 nm. A Jasco FP 6500 fluorometer and quartz cells with a 1 cm route length were employed. The classical Stern–Volmer equation (Equation (3)) was used to interpret the obtained data:(3) F0/F=1+KSV·[Q] F0 and F are the fluorescence intensities of the EB–DNA samples in the absence and presence of the tested compounds, respectively; KSV is the Stern–Volmer constant, which was computed as the slope from the plot of F0/F vs. [Q], where [Q] is the chemical concentration.
The binding ratio was plotted against the logarithm of the concentration in comparison with a control sample exposed solely to DMSO. (4) y=A1+(A2−A1)×x^n/K50^n+x^n
For fitting data points, the modified Hill function with offset (Origin®) was used: where y represents the binding ratio (F/F0), x represents the concentration, A1 represents the minimum of y values, A2 represents the maximum of y values, K50 represents the concentration corresponding to 50% binding or the half maximum binding constant, and n represents the Hill coefficient.

apotransferrin (apo-Tf) = molecular target: T2, apotransferrin (apo-Tf) (Homo sapiens, UniProt P02787); experiment: Apo-Tf fluorescence quenching binding study; conditions: for Ka (association binding constant), Apo-Tf / n1 (Number of Binding Sites), Apo-Tf / n2 (Hill Coefficient), Apo-Tf / Kd / fa (fraction of fluorophore accessible to the quencher), Apo-Tf / Kq (bimolecular quenching constant), Apo-Tf: 298 K; for Kd: read-out: Kd (dissociation constant), Apo-Tf; for fa (fraction of fluorophore accessible to the quencher), Apo-Tf / Ksv* (Stern–Volmer quenching constant), Apo-Tf: compound 0–8 µM; for Ksv* (Stern–Volmer quenching constant), Apo-Tf: Tris-HCl pH 7.4, 298 K; for Kq (bimolecular quenching constant), Apo-Tf: from Ksv* with τ0 = 10^−8 s
T2 construct: purchased Sigma-Aldrich Chemical Co. (Schnelldorf, Germany)
Method: as §1, §2, §3, §4, §5, §6, §7, §8, §9

[3] = test system: LoVo (human colorectal adenocarcinoma) cell line; experiment: MTS cytotoxicity assay, LoVo cell line; type: cell-based; conditions: 48 h of incubation
Method: as §10, §11, §12

T1 sequence (P02768 25-609): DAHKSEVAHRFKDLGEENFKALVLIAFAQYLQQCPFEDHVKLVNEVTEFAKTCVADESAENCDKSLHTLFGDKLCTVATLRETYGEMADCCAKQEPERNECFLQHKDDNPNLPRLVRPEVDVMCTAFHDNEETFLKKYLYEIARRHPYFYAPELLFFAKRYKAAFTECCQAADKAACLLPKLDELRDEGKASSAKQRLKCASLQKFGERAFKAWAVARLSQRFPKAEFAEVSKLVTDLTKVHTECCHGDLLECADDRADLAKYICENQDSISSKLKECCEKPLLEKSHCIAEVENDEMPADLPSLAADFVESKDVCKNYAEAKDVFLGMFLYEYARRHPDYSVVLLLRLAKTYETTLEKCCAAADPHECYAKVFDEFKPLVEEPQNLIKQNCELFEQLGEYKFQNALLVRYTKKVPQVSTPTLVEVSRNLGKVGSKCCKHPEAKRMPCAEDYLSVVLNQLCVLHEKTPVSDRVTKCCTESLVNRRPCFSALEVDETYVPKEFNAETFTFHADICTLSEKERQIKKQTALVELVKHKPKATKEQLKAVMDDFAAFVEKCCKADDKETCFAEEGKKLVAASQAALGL
T2 sequence (P02787 20-698): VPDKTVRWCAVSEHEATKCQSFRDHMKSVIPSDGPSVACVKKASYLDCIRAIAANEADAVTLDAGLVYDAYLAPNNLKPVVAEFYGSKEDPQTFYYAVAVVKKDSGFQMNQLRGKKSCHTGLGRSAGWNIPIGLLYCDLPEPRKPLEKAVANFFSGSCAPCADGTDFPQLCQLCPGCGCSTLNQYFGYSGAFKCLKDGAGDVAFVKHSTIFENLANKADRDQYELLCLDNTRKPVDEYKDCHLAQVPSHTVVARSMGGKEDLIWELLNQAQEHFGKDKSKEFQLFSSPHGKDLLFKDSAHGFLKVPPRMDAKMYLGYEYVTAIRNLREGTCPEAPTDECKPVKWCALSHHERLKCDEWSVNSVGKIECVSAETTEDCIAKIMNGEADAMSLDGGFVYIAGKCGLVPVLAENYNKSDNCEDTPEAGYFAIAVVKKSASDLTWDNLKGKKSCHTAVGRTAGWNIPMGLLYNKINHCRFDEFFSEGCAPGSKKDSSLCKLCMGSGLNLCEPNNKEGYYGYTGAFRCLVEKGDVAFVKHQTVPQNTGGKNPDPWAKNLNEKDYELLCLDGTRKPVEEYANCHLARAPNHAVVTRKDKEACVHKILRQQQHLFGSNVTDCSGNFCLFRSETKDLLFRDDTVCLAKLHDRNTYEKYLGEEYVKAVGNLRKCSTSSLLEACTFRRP

Compound | Ka (association binding constant), HSA [1] | n1 (Number of Binding Sites), HSA [1] | n2 (Hill Coefficient), HSA [1] | Kd [1] [µM] | fa (fraction of fluorophore accessible to the quencher), HSA [1] | Ksv* (Stern–Volmer quenching constant), HSA [1] | Kq (bimolecular quenching constant), HSA [1] [M⁻¹ s⁻¹] | IC50 [2] [µM] | EB Displacement Assay K50 (half maximum binding constant) (EB–DNA system (CT-DNA)) [µM] | KSV, Stern–Volmer quenching constant (EB–DNA) (EB–DNA system (CT-DNA)) | Ka (association binding constant), Apo-Tf (apotransferrin (apo-Tf); apo-Tf 1 µM) | n1 (Number of Binding Sites), Apo-Tf (apotransferrin (apo-Tf); apo-Tf 1 µM) | n2 (Hill Coefficient), Apo-Tf (apotransferrin (apo-Tf); apo-Tf 1 µM) | Kd (apotransferrin (apo-Tf); apo-Tf 1 µM) [µM] | fa (fraction of fluorophore accessible to the quencher), Apo-Tf (apotransferrin (apo-Tf); apo-Tf 1 µM) | Ksv* (Stern–Volmer quenching constant), Apo-Tf (apotransferrin (apo-Tf); apo-Tf 1 µM) | Kq (bimolecular quenching constant), Apo-Tf (apotransferrin (apo-Tf)) [M⁻¹ s⁻¹] | IC50 [3] [µM] | quenching effect on apo-Tf fluorescence peak (apotransferrin (apo-Tf); apo-Tf 1 µM, compound up to 8 µM) [%]
Gd(C12H11N2O3)3(H2O)2·1.5H2O [Gd(nal)3] | (19.61 ± 1.83) × 10^5 M^−1 | 1.14 ± 0.01 | 1.35 ± 0.12 | 3.27 ± 0.11 | 1.10 ± 0.00 | (2.69 ± 0.05) × 10^5 M^−1 | 2.69e+13 | 58.4 ± 29.3 | 31.88 ± 7.73 | 9.86 ± 0.19 M^−1 (×10^3) | (2.63 ± 0.39) × 10^4 M^−1 | 0.87 ± 0.01 | 1.22 ± 0.12 | 5.86 ± 0.72 | 0.82 ± 0.02 | (1.78 ± 0.07) × 10^5 M^−1 | 1.78e+13 | 28.4 ± 7.95 | –
CCn1cc(C(=O)[O-])c(=O)c2ccc(C)nc21.CCn1cc(C(=O)[O-])c(=O)c2ccc(C)nc21.CCn1cc(C(=O)[O-])c(=O)c2ccc(C)nc21.O.O.O.O.O.O.O.O.[La+3] [La(nal)3, La(C12H11N2O3)3(H2O)2·6H2O] | (27.48 ± 2.10) × 10^5 M^−1 | 1.16 ± 0.00 | 1.18 ± 0.08 | 2.91 ± 0.07 | 1.12 ± 0.01 | (2.75 ± 0.10) × 10^5 M^−1 | 2.75e+13 | 149 ± 17.9 | 36.45 ± 16.53 | 2.48 ± 0.44 M^−1 (×10^3) | (1.51 ± 0.72) × 10^4 M^−1 | 0.86 ± 0.04 | 1.04 ± 0.19 | 8.64 ± 2.22 | 0.80 ± 0.06 | (1.04 ± 0.13) × 10^5 M^−1 | 1.04e+13 | 49.8 ± 7.92 | 31
